This is an account of results in EP0000804A1, “Process for the preparation of ethers of clavulanic acid” (BEECHAM GROUP PLC, priority 1977, dated 1979).

Common to all, as to assay: Minimum inhibitory concentration (MIC) in vitro, β-lactamase inhibitory activity demonstration
Common to all, as to assay type: cell-based

In one experiment the test system is Klebsiella aerogenes E70. The conditions noted are these: compound alone, no ampicillin, read-out: MIC KA, Compound alone. As to the method: (§1) The minimum inhibitory concentrations (MIC) of certain compounds of this invention and of ampicillin, alone or in the presence of compounds of the invention, were determined in vitro for a range of micro-organisms.
For experiment [1], the system named is Staphylococcus aureus Russell. To be noted: compound alone, no ampicillin, read-out: MIC SAR, Compound alone. As to the method:
as §1

Another experiment deals with Proteus mirabilis C889. The conditions noted are these: compound alone, no ampicillin. As to the method:
as §1

The next experiment concerns E. coli JT39. To be noted: Escherichia coli, compound alone, no ampicillin, read-out: MIC EC, Compound alone. As to the method:
as §1

Values after ≈ are worked out from the molar mass of the structure shown.

As to `C=COC/C=C1\O[C@@H]2CC(=O)N2[C@H]1C(=O)OC` [Example 8, Methyl 9-0-vinylclavulanate], the MIC (in general, the lowest concentration found to suppress growth) with Klebsiella aerogenes E70 came out at 500 µg/mL (≈ 2090 µM); in experiment [1], 125 µg/mL (≈ 523 µM); against Proteus mirabilis C889 it was 250 µg/mL (≈ 1050 µM); in the experiment with E. coli JT39, 500 µg/mL (≈ 2090 µM).

In the case of `C=COC/C=C1\O[C@@H]2CC(=O)N2[C@H]1C(=O)O` [Example 10, Lithium 9-0-vinyl-clavulanate], the MIC is 31.2 µg/mL (≈ 139 µM) in the experiment on Klebsiella aerogenes E70, 15.6 µg/mL (≈ 69.3 µM) in experiment [1], 62.5 µg/mL (≈ 278 µM) in the experiment with Proteus mirabilis C889 and 31.2 µg/mL (≈ 139 µM) with E. coli JT39.
